Data on 1 molecule can be found in patent US8501806B2, “Methods for preventing or reducing colon carcinogenesis” (Nogra Pharma Limited, priority 2008, dated 2013).

The subject of assay [1] is HT-29 cells. Description: CFSE cell proliferation assay, HT-29 cells. The following applies: FIG. 2; graded doses. The assay is classed as cell-based, human. Here is the method: (§1) All reagents used in Examples 1-3 were from Sigma-Aldrich (Milan, Italy) unless specified. Compounds were dissolved as a 25 mM stock solution in culture medium, and the pH of the solution was adjusted to 7.4, if necessary, with NaOH. The human CRC cell lines, HCT-116 and HT-29 (expressing either wild-type or mutated p53 respectively), were maintained in McCoy's 5A supplemented with 10% fetal bovine serum (FBS), 1% penicillin/streptomycin, and 50 μg/ml gentamycin. The murine CRC cell line, CT26, was maintained in RPMI 1640 medium supplemented with 10% FBS and 1% penicillin/streptomycin.
For cell growth assays, serum-starved HCT-116, HT-29, and CT26 cells were plated in appropriate complete medium at 2×10^5 cells/ml/well in 6-well culture dishes and allowed to adhere overnight. Cells were then labeled with carboxyfluorescein diacetate succinimidyl ester (CFSE) (Invitrogen, Milan Italy) at 37° C. according to the manufacturer's instruction. After 30 minutes, the medium was removed and fresh media containing 0.05% bovine serum albumin (BSA), and increasing doses of 5-ASA or disclosed compounds were added. […] CFSE and/or PI-positive cells were determined by flow cytometry (Becton Dickinson, FACSCalibur, Milan, Italy). […] The percentage of proliferating cells was then evaluated by flow cytometry.

In assay [2] the test system is HCT-116 cells. In words: Cell cycle distribution (BrdU/PI flow cytometry). Type of assay: cell-based, human. The following applies: FIG. 5; increasing concentrations, 24 hours. Here is the method: For analysis of cell cycle distribution, serum-starved cells were cultured in medium containing 0.05% BSA and the desiderated concentrations of compound 14 for 24 hours. Cells were pulsed with 10 μM BrdU for 60 minutes, then collected, washed twice with PBS 1×, fixed in 70% cold ethanol, and stored at −20° C. for at least 3 hours. Afterwards, cells were washed twice with PBS 1×, denatured in 2M HCl and stained with anti-BrdU monoclonal antibody (Immunotech, Marseille, France) followed by FITC-conjugated secondary anti-mouse IgG (Molecular Probes/Invitrogen, Milan, Italy). After staining with 100 μg/ml PI, cells were analyzed by flow cytometry. […] HCT-116 cells were treated with or without compound 14 for 24 hours. Values in FIG. 5 are the percentages of cells in the different phases of cell cycle and indicate mean±SD of 4 experiments (untreated vs compound 14-treated cells * P<0.04, ** P<0.001). Right insets show representative dot-plots of the cell cycle distribution.
(In general: Flow cytometry measures light scatter and fluorescence of single cells or particles in a stream.)

Assay [3] concerns 4T1-derived metastasis. Description: 4T1 spontaneous metastasis, clonogenic metastasis assay. The following applies: FIG. 11; daily i.p. 8 mg/kg/mouse, sacrificed at day 35. The assay is classed as in vivo, Balb/c mice. As to the method:
Spontaneous metastases were measured by adapting methods described previously by Pulaski and Ostrand-Rosenberg (Cancer Research 58, 1486-1493, 1998). 4T1 tumor cells (1×10^5 cells in 100 μl 1×PBS) were injected s.c. in the abdominal mammary gland of 8-10 weeks old female Balb/c mice. Three days after 4T1 injection, mice received daily i.p. administration of compound 14 (8 mg/kg/mouse) or PBS (control). Mice were monitored over the time for weight loss and sacrificed at day 35. Lungs and liver were removed from each mouse, and treated as follows: liver samples were finely minced and digested with an enzyme solution containing 1×PBS, 0.01% BSA, 1 mg/ml hyaluronidase, and 1 mg/ml collagenase type I for 20 min at 37° C. on a platform rocker; lung samples were finely minced and digested with an enzyme cocktail containing 1×PBS, 1 mg/ml collagenase type IV and 10 units/ml elastase for 1 h at […] on a rotating wheel. At the end, samples were filtered through 70 μm nylon cell strainers and washed three times with 1×PBS. The resulting cell preparations were resuspended and plated neat or serially diluted in 10-cm tissue culture dishes in 20 ml of medium containing 60 μM 6-thioguanine. Suspensions were incubated in 10% CO2-air atmosphere at 37° C. for clonogenic growth. […] Total colony-forming cells were calculated on a per-organ basis. […]

Assay [4] concerns HCT-116 cells. In words: CFSE cell proliferation assay, HCT-116 cells. The assay is classed as cell-based, human. As to the method:
as §1
For cell growth assays, serum-starved HCT-116, HT-29, and CT26 cells were plated in appropriate complete medium at 2×10^5 cells/ml/well in 6-well culture dishes and allowed to adhere overnight. Cells were then labeled with carboxyfluorescein diacetate succinimidyl ester (CFSE) (Invitrogen, Milan Italy) at 37° C. according to the manufacturer's instruction. After 30 minutes, the medium was removed and fresh media containing 0.05% bovine serum albumin (BSA), and increasing doses of 5-ASA or disclosed compounds were added. After 24 hours, cells were collected, washed twice with PBS 1×, and then incubated with 5 μg/ml of PI for 15 minutes, at 4° C. in the dark. CFSE and/or PI-positive cells were determined by flow cytometry (Becton Dickinson, FACSCalibur, Milan, Italy). To determine whether the negative effect of compound 14 (2-methoxy-5-amino-N-hydroxybenzamide) on proliferation was reversible, cells were cultured in the presence or absence of compound 14 (1.5 and 3 mM) for 24 hours (1st culture). Afterwards, cells were either left untreated or extensively washed and cultured with medium in the absence of compound 14 for additional 24 hours (2nd culture). The percentage of proliferating cells was then evaluated by flow cytometry.

Assay [5] has as its system CDK2. In words: CDK2 phosphorylation by Western blotting. The assay is classed as cell-based, human. As to conditions: FIG. 6, HCT-116 cells. The text has this:
One of 4 representative Western blots is shown.

Assay [6] deals with fibroblasts. Description: Proliferation of normal fibroblasts. As to conditions: FIG. 4B; 48 hours. Type of assay: cell-based.

In the case of `COc1ccc(N)cc1C(=O)NO` [compound 14, 2-methoxy-5-amino-N-hydroxybenzamide], the “proliferation of HT-29 cells” value in assay [1] is on record as “dose-dependently inhibited”. Also, in assay [2], the “cells in G0/G1 phase” value is “progressive accumulation”; the “cells with S and G2/M phase DNA content” value is “decrease”. Besides, in assay [3], the “number of liver metastatic tumor cells” value is “reduction” and the “number of lung metastatic tumor cells” value is listed as “reduction”. The “anti-proliferative effect (percentage of growth inhibition)” value in assay [4] (FIG. 1, CFSE-labeled HCT 116 cells, increasing doses) is reported as “pronounced anti-proliferative effect”. Besides, the “potency relative to 5-ASA in inhibiting CRC cell proliferation” value in assay [4] (FIG. 1, CFSE-labeled HCT 116 cells, increasing doses, 24 hours) was “about ten times more potent than 5-ASA”. The “proliferation of HCT-116 cells” value in assay [4] (FIG. 2, graded doses) is recorded as “dose-dependently inhibited”. The “time dependence of anti-proliferative effect” value in assay [4] (FIG. 3A, increasing doses for 24, 48, and 72 hours) is on record as “time-dependent”. Further, in assay [4] (FIG. 3B, 1.5-3 mM for 24 hours, then washed and cultured 24 hours without compound), the “reversibility of anti-proliferative effect” value is reported as “fully reversible”. Moreover, the “CDK2 phosphorylation on threonin 14 and tyrosine 15” value in assay [5] is reported as “enhanced phosphorylation”. In assay [6], the “proliferation of normal fibroblasts” value was “did not affect”.
